# Values quoted from earlier work as cited in patent publication US20130121964A1, “Pharmacogenomic and Response-Guided Treatment of Infectious Disease Using Yeast-Based Immunotherapy” (GLOBEIMMUNE, INC., priority 2010, published 2013).
# Experiments:
# [1] = in vivo
smiles,measurement,setting,value
"NC(=O)c1ncn([C@@H]2O[C@H](CO)[C@@H](O)[C@H]2O)n1 [Ribavirin, 1-(beta)-D-ribofuranosyl-1H-1,2,4-triazole-3-carboxamide]",patients with hemolytic anemia,[1],20-30%
same,solubility in anhydrous alcohol,anhydrous alcohol,slightly soluble
same,solubility in water,water,freely soluble
